# Key:
# MtrR-mtrCDE promoter = target: T1, MtrR-mtrCDE promoter (Neisseria gonorrhoeae, UniProt P39897); format: biochemical; details: 10 mM CAPS, pH 8.0
# T1 construct: nearly all 210 residues of each protomer observed, with the exception of residues 1 through 7; hexahistidine tag (thrombin-cleavable) (cleaved yes); made in house
# Method: Thus, to rule out any effect of alkaline pH on MtrR-DNA interactions, we buffered the CAPS used in the FP assay to pH 8.0 before testing its effect on DNA binding.
# Fluorescence polarization-based DNA binding experiments were performed with a Panvera Beacon 2000 fluorescence polarization system (Invitrogen) utilizing 5′-fluorescein-labeled DNA. Polarization (P) of such 5′-labeled DNA increases as a function of protein binding, and equilibrium dissociation constants are determined by curve fitting the values of millipolarization (P × 10^−3) units against the protein concentration. To determine the effects of various ligands on MtrR-DNA binding, 1 nM 5′-fluoresceinated oligodeoxynucleotide duplexes containing the mtrC operator site in 1 ml binding buffer (20 mM Tris HCl [pH 8.0], 100 mM NaCl, and 2.5% glycerol) were titrated against increasing concentrations of purified MtrR in the presence or absence of the indicated concentrations of bile salt, and the resulting changes in polarization were measured. All the samples were excited at 490 nm, and their polarized emissions were measured at 530 nm. All the data were plotted using Kaleidagraph (Synergy Software) and Prism (GraphPad Software), and the resulting plots were fitted to the following equation: P = {(Pbound − Pfree)[protein]/(KD + [protein])} + Pfree, where P is the polarization measured at a given protein concentration, Pfree is the initial polarization of the free ligand, Pbound is the maximum polarization of specifically bound ligand, KD is the equilibrium dissociation constant, and [protein] is the protein concentration. Nonlinear least-squares analysis was used to determine Pbound, and Kd. The reported binding constants are the average values from at least three independent experimental measurements.
# [1] = CAPS buffer; no reference given; cited from earlier work
# T1 sequence (P39897 whole entry): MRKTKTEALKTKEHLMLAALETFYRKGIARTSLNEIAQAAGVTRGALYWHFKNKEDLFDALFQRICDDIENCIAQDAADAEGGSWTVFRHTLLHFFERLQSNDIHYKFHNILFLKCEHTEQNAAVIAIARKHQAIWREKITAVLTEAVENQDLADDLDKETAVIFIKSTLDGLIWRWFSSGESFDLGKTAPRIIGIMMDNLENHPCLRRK
smiles,measurement,setting,value
"O=S(=O)(O)CCCNC1CCCCC1 [CAPS, N-cyclohexyl-3-aminopropanesulfonic acid]",Fold reduction of MtrR affinity for the mtrC operator sequence,MtrR-mtrCDE promoter,> 300 fold
same,pKa,[1],~10.5
